The nature of the assay: Inhibition of NADH-ubiquinone oxidoreductase activity in bovine heart submitochondrial particles. Set-up: species or system Bos taurus.
`CCCCCCCCCCCCCCCC[C@H](O)[C@@H](O)CCCCCCCCCCCCCCC1=C[C@H](C)OC1=O` came in with an IC50 of 580 nM.

`CCCCCCCCCC[C@@H](O)[C@@H]1CC[C@@H]([C@@H]2CC[C@@H]([C@H](O)CCCCCCCCCC(O)CC3=CC(C)OC3=O)O2)O1` (stereo not given in full) [BULLATACIN] registered an IC50 of 0.83 nM.

The compound `CCCCCCCCCCCC[C@H](O)[C@@H]1CC[C@H]([C@H](O)CCCCCCCCCCCCC2=C[C@H](C)OC2=O)O1` [CIS-SOLAMIN] yielded an IC50 of 2.6 nM.

For `CCCCCCCCCCCC[C@H](O)[C@@H](O)CC[C@@H](O)[C@H](O)CCCCCCCCCCCCC1=C[C@H](C)OC1=O` [DIHYDROXY-COHIBIN A], half-maximal inhibition (IC50) required 20 nM.

Regarding `CCCCCCCCCCCCCCCC[C@@H](O)[C@H](O)CCCCCCCCCCCCCCC1=C[C@H](C)OC1=O` [TONKINELIN], the concentration for half-maximal inhibition (IC50) worked out at 690 nM.

As a reminder, the IC50 is the midpoint of a concentration-inhibition curve. Read a high IC50 as weaker potency.

These data come from ChEMBL document CHEMBL1147856, “Synthesis, determination of the absolute configuration of tonkinelin, and inhibitory action with bovine heart mitochondrial complex I” (Bioorg Med Chem, 2007).
